This is an account of results in patent US20090215857A1 (Pfizer Products Inc., priority 2005, published 2009).

Structures can show the parent of a compound that is named as a salt.

Test [1] has as its target T1, human serotonin transporter (Homo sapiens, UniProt P31645).
T1 construct: expressed in transfected cells; host or cells: HEK-293
As to the kind of experiment: hSERT receptor binding ([125I]-RTI-55 radioligand). Conditions: membranes of HEK-293 cells transfected with human serotonin transporter cDNA; 50 pM [125I]-RTI-55; IC50 converted by Cheng-Prusoff; read-out: SERT Ki. As for the experimental part:
Cell pastes of HEK-293 cells transfected with a human serotonin transporter cDNA were prepared. The cell pastes were resuspended in 400 to 700 ml of Krebs-HEPES assay buffer (25 mM HEPES, 122 mM NaCl, 3 mM KCl, 1.2 mM MgSO4, 1.3 mM CaCl2, and 11 mM glucose, pH 7.4) with a Polytron homogenizer at Setting 7 for 30 seconds. Aliquots of membranes (˜2.5 mg/ml protein) were stored in liquid nitrogen until used.
Assays were set up in FlashPlates pre-coated with 0.1% PEI in a total volume of 250 μl containing: test compound (10^−5M to 10^−12M), cell membranes, and 50 pM [^125I]-RTI-55 (Perkin Elmer, NEX-272; specific activity 2200 Ci/mmol). The reaction was incubated and gently agitated for 90 minutes at room temperature, and terminated by removal of assay volume. Plates were covered, and bound [^125I]-RTI-55 was determined using a Wallac Trilux Beta Plate Counter. Test compounds were run in duplicate, and specific binding was defined as the difference between binding in the presence and absence of 10 μM citalopram.
Excel and GraphPad Prism software were used for data calculation and analysis. IC50 values were converted to Ki values using the Cheng-Prusoff equation.

The target in test [2] is T2, human norepinephrine transporter (Homo sapiens, UniProt P23975).
T2 construct: expressed in transfected cells; host or cells: HEK-293
As to the kind of experiment: hNET receptor binding ([125I]-RTI-55 radioligand). The note with it: membranes of HEK-293 cells transfected with human norepinephrine transporter cDNA; 50 pM [125I]-RTI-55; IC50 converted by Cheng-Prusoff; read-out: NET Ki. As for the experimental part:
Cell pastes of HEK-293 cells transfected with a human norepinephrine transporter cDNA were prepared. The cell pastes were resuspended in 400 to 700 ml of Krebs-HEPES assay buffer (25 mM HEPES, 122 mM NaCl, 3 mM KCl, 1.2 mM MgSO4, 1.3 mM CaCl2, and 11 mM glucose, pH 7.4) with a Polytron homogenizer at setting 7 for 30 seconds. Aliquots of membranes (5 mg/ml protein) were stored in liquid nitrogen until used.
The binding assay was set up in Beckman deep-well polypropylene plates with a total volume of 250 μl containing: test compound (10^−5M to 10^−12M), cell membranes, and 50 pM [^125I]-RTI-55 (Perkin Elmer, NEX-272; specific activity 2200 Ci/mmol). The reaction was incubated by gentle agitation for 90 minutes at room temperature and was terminated by filtration through Whatman GF/C filter plates using a Brandel 96-well plate harvester. Scintillation fluid (100 μl) was added to each well, and bound [^125I]-RTI-55 was determined using a Wallac Trilux Beta Plate Counter. Test compounds were run in duplicate, and specific binding was defined as the difference between binding in the presence and absence of 10 μM desipramine.
Excel and GraphPad Prism software were used for data calculation and analysis. IC50 values were converted to K, values using the Cheng-Prusoff equation.

Usually Ki stands for the dissociation constant of the complex between target and ligand, obtained from inhibition or displacement.

T2 sequence (P23975 whole entry): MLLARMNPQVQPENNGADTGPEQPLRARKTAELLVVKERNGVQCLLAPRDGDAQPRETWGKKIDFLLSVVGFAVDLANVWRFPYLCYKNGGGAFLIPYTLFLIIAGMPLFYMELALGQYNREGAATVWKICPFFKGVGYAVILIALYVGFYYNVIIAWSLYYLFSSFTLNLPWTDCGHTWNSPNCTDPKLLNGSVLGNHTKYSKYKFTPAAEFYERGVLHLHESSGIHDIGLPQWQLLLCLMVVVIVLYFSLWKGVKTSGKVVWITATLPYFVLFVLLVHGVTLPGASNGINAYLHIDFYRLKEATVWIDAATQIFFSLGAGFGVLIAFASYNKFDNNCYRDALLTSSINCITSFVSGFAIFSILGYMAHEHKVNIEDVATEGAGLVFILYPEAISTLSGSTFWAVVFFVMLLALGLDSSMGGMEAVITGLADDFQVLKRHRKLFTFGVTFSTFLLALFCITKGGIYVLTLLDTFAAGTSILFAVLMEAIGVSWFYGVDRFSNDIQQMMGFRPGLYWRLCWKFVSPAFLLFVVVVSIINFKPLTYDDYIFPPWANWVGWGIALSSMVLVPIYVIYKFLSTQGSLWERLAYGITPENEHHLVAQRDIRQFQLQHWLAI
T1 sequence (P31645 whole entry): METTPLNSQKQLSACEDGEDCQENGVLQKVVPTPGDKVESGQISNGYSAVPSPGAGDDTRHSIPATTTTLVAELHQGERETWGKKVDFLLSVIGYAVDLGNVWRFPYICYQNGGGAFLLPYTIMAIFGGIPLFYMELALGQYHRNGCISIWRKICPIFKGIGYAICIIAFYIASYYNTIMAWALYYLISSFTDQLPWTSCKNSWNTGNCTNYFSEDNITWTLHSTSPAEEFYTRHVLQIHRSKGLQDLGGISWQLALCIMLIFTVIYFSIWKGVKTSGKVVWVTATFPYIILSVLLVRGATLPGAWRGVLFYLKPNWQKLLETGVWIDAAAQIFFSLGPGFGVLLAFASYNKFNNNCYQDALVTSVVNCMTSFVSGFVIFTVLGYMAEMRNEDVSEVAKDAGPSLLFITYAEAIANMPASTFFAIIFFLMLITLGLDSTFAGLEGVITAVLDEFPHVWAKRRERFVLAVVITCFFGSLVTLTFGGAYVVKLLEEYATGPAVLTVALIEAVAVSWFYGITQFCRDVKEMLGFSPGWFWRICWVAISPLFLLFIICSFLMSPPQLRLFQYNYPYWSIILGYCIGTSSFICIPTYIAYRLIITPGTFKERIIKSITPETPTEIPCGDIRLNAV

Take `Cc1cc(-c2ccccc2CO[C@H]2CCNC2)ccc1F` [Example D-11, (S)-3-(4′-Fluoro-3′-methyl-biphenyl-2-ylmethoxy)-pyrrolidine]: the Ki in test [1] was 26.7 nM; in test [2], 39.6 nM.
As for `Cc1ccc(C)c(-c2ccc(F)cc2CO[C@H]2CCNC2)c1` [Example D-89, (S)-3-(4-Fluoro-2′,5′-dimethyl-biphenyl-2-ylmethoxy)-pyrrolidine], the Ki in test [1] turned out to be 268 nM; in test [2], 189 nM.
Take `c1ccc(-c2cccc3ncccc23)c(CO[C@H]2CCNC2)c1` [Example D-122, (S)-5-[2-(Pyrrolidin-3-yloxymethyl)-phenyl]-quinoline]: the values for the Ki in test [1] and in test [2] were 769 nM and 659 nM, respectively.
For the molecule `Fc1cccc(-c2ccc(F)cc2CO[C@H]2CCNC2)c1` [Example D-80, (S)-3-(4,3′-Difluoro-biphenyl-2-ylmethoxy)-pyrrolidine], the Ki in test [1] worked out at 44.7 nM; in test [2], 36 nM.
Turning to `CC(C)N(C(=O)c1ccccc1-c1ccccc1CO[C@H]1CCNC1)C(C)C` [Example D-5, (S)-2′-(Pyrrolidin-3-yloxymethyl)-biphenyl-2-carboxylic acid diisopropylamide], the inhibition constant Ki in test [1] was 197 nM; in test [2], 17.9 nM.
Take `COc1ccc(-c2ccccc2CO[C@H]2CCNC2)cc1C` [Example A-10, (S)-3-(4′-Methoxy-3′-methyl-biphenyl-2-ylmethoxy)-pyrrolidine fumarate]: the Ki was 116 nM in test [1] and 22.8 nM in test [2].
For the molecule `COc1ccc(F)cc1-c1ccccc1CO[C@H]1CCNC1` [Example A-22, fumarate], the figures for the Ki in test [1] and in test [2] were 136 nM and at least 10000 nM, respectively.
For the molecule `Cc1ccccc1-c1ccccc1CO[C@H]1CCNC1` [Example D-26, (S)-3-(2′-Methyl-biphenyl-2-ylmethoxy)-pyrrolidine], the Ki in test [1] is 457 nM; in test [2] it was 277 nM.
Turning to `COc1ccc(-c2ccc(F)cc2CO[C@H]2CCNC2)cc1` [Example D-115, (S)-3-(4-Fluoro-4′-methoxy-biphenyl-2-ylmethoxy)-pyrrolidine], the Ki in test [1] was determined as 606 nM; in test [2], 674 nM.
For the molecule `COc1ccc(OC)c(-c2ccc(F)cc2CO[C@H]2CCNC2)c1` [Example D-68, (S)-3-(4-Fluoro-2′,5′-dimethoxy-biphenyl-2-ylmethoxy)-pyrrolidine], the Ki is 1240 nM in test [1] and 1160 nM in test [2].
As to `Cc1cc(C)n(-c2cccc(-c3ccccc3CO[C@H]3CCNC3)c2)n1` [Example D-59, (S)-3,5-Dimethyl-1-[2′-(pyrrolidin-3-yloxymethyl)-biphenyl-3-yl]-1H-pyrazole], the Ki in test [1] was 57.8 nM; in test [2] it was at least 10000 nM.
In the case of `Fc1cccc(-c2cccc(F)c2CO[C@H]2CCNC2)c1F` [Example A-33, (3S)-3-[(2′,3,3′-trifluorobiphenyl-2-yl)methoxy]pyrrolidine fumarate], the Ki is 99.7 nM in test [1] and 25.7 nM in test [2].
On the same counts, the results for `Fc1ccccc1-c1ccccc1CO[C@H]1CCNC1` [Example D-10, (S)-3-(2′-Fluoro-biphenyl-2-ylmethoxy)-pyrrolidine] are 317 nM and 26.5 nM.
With `Fc1ccc(-c2c(F)cccc2CO[C@H]2CCNC2)c(F)c1` [Example A-34, (3S)-3-[(2′,4′,6-trifluorobiphenyl-2-yl)methoxy]pyrrolidine hydrochloride], the values for the Ki in test [1] and in test [2] were 439 nM and 23.3 nM, respectively.
Taken in the same sequence, the figures for `Fc1ccc(-c2cccc(Cl)c2)c(CO[C@H]2CCNC2)c1` [Example D-108, (S)-3-(3′-Chloro-4-fluoro-biphenyl-2-ylmethoxy)-pyrrolidine] were 57 nM and 103 nM.
`Cc1cccc(-c2ccccc2CO[C@H]2CCNC2)c1` [Example D-16, (S)-3-(3′-Methyl-biphenyl-2-ylmethoxy)-pyrrolidine]: the Ki was 24.7 nM in test [1] and 63.5 nM in test [2].
Consider `c1ccc(-c2ccc3c(c2)OCCCO3)c(CO[C@H]2CCNC2)c1` [Example D-50, (S)-3-[2-(3,4-Dihydro-2H-benzo[b][1,4]dioxepin-7-yl)-benzyloxy]-pyrrolidine], for which the Ki in test [1] amounted to 709 nM; in test [2], 4450 nM.
Consider `Clc1ncccc1-c1ccccc1CO[C@H]1CCNC1` [Example D-118, (S)-2-Chloro-3-[2-(pyrrolidin-3-yloxymethyl)-phenyl]-pyridine], for which the figures for the Ki in test [1] and in test [2] were 3560 nM and at least 10000 nM, respectively.
As to `Cc1cccc(-c2ccccc2CO[C@H]2CCNC2)c1C` [Example D-33, (S)-3-(2′,3′-Dimethyl-biphenyl-2-ylmethoxy)-pyrrolidine], the values for the Ki in test [1] and in test [2] were 28.9 nM and 526 nM, respectively.
With `Cc1cccc(-c2ccccc2CO[C@H]2CCNC2)c1C` [Example D-35, (S)-3-(2′,3′-Dimethyl-biphenyl-2-ylmethoxy)-pyrrolidine], the Ki in test [1] stood at 59.6 nM; in test [2], 585 nM.
As to `c1ccc(-c2ccccc2-c2ccccc2CO[C@H]2CCNC2)cc1` [Example D-34, (S)-3-([1,1′,2′,1″]Terphenyl-2-ylmethoxy)-pyrrolidine], the Ki was 2750 nM in test [1] and 554 nM in test [2].
As for `N#Cc1cccc(-c2ccccc2CO[C@H]2CCNC2)c1` [Example D-30], the Ki in test [1] is 285 nM; in test [2] it was 371 nM.
Take `Oc1ccc(-c2ccc(F)cc2CO[C@H]2CCNC2)cc1` [Example D-99, (S)-4′-Fluoro-2′-(pyrrolidine-3-yloxymethyl)-biphenyl-4-ol]: the Ki in test [1] was 659 nM; in test [2], 43.1 nM.
In the case of `CSc1cccc(-c2ccccc2CO[C@H]2CCNC2)c1` [Example D-20, (S)-3-(3′-Methylsulfanyl-biphenyl-2-ylmethoxy)-pyrrolidine], the Ki in test [1] amounted to 24.8 nM; in test [2] it was 108 nM.
Turning to `N#Cc1cccc(-c2ccc(F)cc2F)c1CO[C@H]1CCNC1` [Example E-2, (S)-2′,4′-Difluoro-2-(pyrrolidin-3-yloxymethyl)-biphenyl-3-carbonitrile fumarate], the results for the Ki in test [1] and in test [2] were 3770 nM and 763 nM, respectively.
As for `Fc1ccccc1-c1ccccc1CO[C@@H]1CCNC1` [Example A-16, (R)-3-(2′-Fluoro-biphenyl-2-ylmethoxy)-pyrrolidine fumarate], the Ki in test [1] came to 436 nM; in test [2] it was 89.9 nM.
For `COc1ccc(-c2ccc(F)cc2CO[C@H]2CCNC2)cc1F` [Example D-100, (S)-3-(4,3′-Difluoro-4′-methoxy-biphenyl-2-ylmethoxy)-pyrrolidine], the Ki in test [1] is 486 nM; in test [2], 404 nM.
`c1ccc(-c2ccc3ccccc3c2)c(CO[C@H]2CCNC2)c1` [Example D-29, (S)-3-(2-Naphthalen-2-yl-benzyloxy)-pyrroldine]: the figures for the Ki in test [1] and in test [2] were 172 nM and 314 nM, respectively.
As for `Fc1ccc(CO[C@H]2CCNC2)c(-c2cccc(F)c2F)c1` [Example A-24, (S)-(5,2′,3′-Trifluoro-biphenyl-2-ylmethoxy)-pyrrolidine hydrochloride], the values for the Ki in test [1] and in test [2] were 232 nM and 14.2 nM, respectively.
As to `Fc1ccc(-c2ccccc2CO[C@H]2CCNC2)cc1Cl` [Example D-14, (S)-3-(3′-Chloro-4′-fluoro-biphenyl-2-ylmethoxy)-pyrrolidine], the Ki in test [1] is 15.1 nM; in test [2] it was 47.3 nM.
As for `Fc1ccccc1-c1c(F)cccc1CO[C@H]1CCNC1` [Example A-32, (3S)-3-[(2′,6-difluorobiphenyl-2-yl)methoxy]pyrrolidine hydrochloride], the inhibition constant (Ki) in test [1] was found to be 758 nM; in test [2] it was 23.9 nM.
In the case of `Nc1ncccc1-c1ccccc1CO[C@H]1CCNC1` [Example D-121, (S)-3-[2-(Pyrrolidin-3-yloxymethyl)-phenyl]-pyridin-2-ylamine], the Ki was 5630 nM in test [1] and at least 10000 nM in test [2].
`CC(C)OC(=O)c1ccc(-c2ccc(F)cc2CO[C@H]2CCNC2)cc1` [Example D-88, (S)-4′-Fluoro-2′-(pyrrolidine-3-yloxymethyl)-biphenyl-4-carboxylic acid isopropyl ester]: the figures for the inhibitory constant (Ki) in test [1] and in test [2] were 1040 nM and 1030 nM, respectively.
